Columns and labels:
Assay in all cases: relative viability (nuclei count vs DMSO), 5 days (fraction); higher = more cells survive
CAL-12T = test system: CAL-12T
Outline: (§1)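 Relative viability divides the nuclei count in treated wells by that in vehicle wells. Lung cancer cell lines were seeded in 1536-well plates, dosed by pin tool the next day, and fixed and stained after 5 days in one step with final 0.05% Triton X-100, 1% formaldehyde and 1 ug/ml Hoechst. Dosing was a single drug or a fixed anchor-drug dose plus five library-drug doses (not always all listed) in √10 steps, and values are medians of duplicate plates imaged at 4×.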

COR-L 105 = test system: COR-L 105
Outline: as §1

H3255 = test system: H3255
Outline: as §1

HARA = test system: HARA
Outline: as §1

HCC-15 = test system: HCC-15
Outline: as §1

HCC-366 = test system: HCC-366
Outline: as §1

LC-2-ad = test system: LC-2-ad
Outline: as §1

LU99A = test system: LU99A
Outline: as §1

NCI-H1395 = test system: NCI-H1395
Outline: as §1

NCI-H1666 = test system: NCI-H1666
Outline: as §1

NCI-H1734 = test system: NCI-H1734
Outline: as §1

NCI-H1944 = test system: NCI-H1944
Outline: as §1

NCI-H1975 = test system: NCI-H1975
Outline: as §1

NCI-H1993 = test system: NCI-H1993
Outline: as §1

NCI-H2228 = test system: NCI-H2228
Outline: as §1

NCI-H3122 = test system: NCI-H3122
Outline: as §1

NCI-H520 = test system: NCI-H520
Outline: as §1

NCI-H647 = test system: NCI-H647
Outline: as §1

NCI-H661 = test system: NCI-H661
Outline: as §1

NCI-H838 = test system: NCI-H838
Outline: as §1

PC-14 = test system: PC-14
Outline: as §1

PC-3 [JPC-3] = test system: PC-3 [JPC-3]
Outline: as §1

SK-LU-1 = test system: SK-LU-1
Outline: as §1

Cc1cnc(-c2cnc(NCCNc3ccc(C#N)cn3)nc2-c2ccc(Cl)cc2Cl)[nH]1 + Cc1nc(Nc2ncc(C(=O)Nc3c(C)cccc3Cl)s2)cc(N2CCN(CCO)CC2)n1 [Dasatinib] (partner 0.075 µM)
relative viability (CAL-12T; first compound 0.08 µM): 0.523
relative viability (CAL-12T; first compound 0.253 µM): 0.358
relative viability (CAL-12T; first compound 0.8 µM): 0.23
relative viability (CAL-12T; first compound 2.53 µM): 0.198
relative viability (COR-L 105; first compound 0.08 µM): 0.354
relative viability (COR-L 105; first compound 0.253 µM): 0.344
relative viability (COR-L 105; first compound 0.8 µM): 0.282
relative viability (COR-L 105; first compound 2.53 µM): 0.208
relative viability (H3255; first compound 0.08 µM): 0.466
relative viability (H3255; first compound 0.253 µM): 0.445
relative viability (H3255; first compound 2.53 µM): 0.388
relative viability (HARA; first compound 0.08 µM): 0.223
relative viability (HARA; first compound 0.253 µM): 0.259
relative viability (HARA; first compound 0.8 µM): 0.343
relative viability (HARA; first compound 2.53 µM): 0.244
relative viability (HCC-15; first compound 0.08 µM): 0.687
relative viability (HCC-15; first compound 0.253 µM): 0.509
relative viability (HCC-15; first compound 0.8 µM): 0.598
relative viability (HCC-15; first compound 2.53 µM): 0.625
relative viability (HCC-366; first compound 0.08 µM): 0.67
relative viability (HCC-366; first compound 0.253 µM): 0.545
relative viability (HCC-366; first compound 0.8 µM): 0.618
relative viability (HCC-366; first compound 2.53 µM): 0.595
relative viability (LC-2-ad; first compound 0.08 µM): 0.662
relative viability (LC-2-ad; first compound 0.253 µM): 0.486
relative viability (LC-2-ad; first compound 2.53 µM): 0.471
relative viability (LU99A; first compound 0.08 µM): 0.507
relative viability (LU99A; first compound 0.253 µM): 0.487
relative viability (LU99A; first compound 0.8 µM): 0.528
relative viability (LU99A; first compound 2.53 µM): 0.643
relative viability (NCI-H1395; first compound 0.08 µM): 0.405
relative viability (NCI-H1395; first compound 0.253 µM): 0.401
relative viability (NCI-H1395; first compound 0.8 µM): 0.443
relative viability (NCI-H1395; first compound 2.53 µM): 0.432
relative viability (NCI-H1666; first compound 0.08 µM): 0.897
relative viability (NCI-H1666; first compound 0.253 µM): 0.671
relative viability (NCI-H1666; first compound 0.8 µM): 0.845
relative viability (NCI-H1666; first compound 2.53 µM): 0.7
relative viability (NCI-H1734; first compound 0.08 µM): 0.461
relative viability (NCI-H1734; first compound 0.253 µM): 0.417
relative viability (NCI-H1734; first compound 0.8 µM): 0.467
relative viability (NCI-H1734; first compound 2.53 µM): 0.415
relative viability (NCI-H1944; first compound 0.08 µM): 0.24
relative viability (NCI-H1944; first compound 0.8 µM): 0.251
relative viability (NCI-H1944; first compound 2.53 µM): 0.316
relative viability (NCI-H1975; first compound 0.08 µM): 0.427
relative viability (NCI-H1975; first compound 0.253 µM): 0.336
relative viability (NCI-H1975; first compound 0.8 µM): 0.282
relative viability (NCI-H1975; first compound 2.53 µM): 0.241
relative viability (NCI-H1993; first compound 0.08 µM): 0.58
relative viability (NCI-H1993; first compound 0.253 µM): 0.568
relative viability (NCI-H1993; first compound 0.8 µM): 0.499
relative viability (NCI-H1993; first compound 2.53 µM): 0.996
relative viability (NCI-H2228; first compound 0.08 µM): 0.548
relative viability (NCI-H2228; first compound 0.253 µM): 0.554
relative viability (NCI-H2228; first compound 0.8 µM): 0.494
relative viability (NCI-H2228; first compound 2.53 µM): 0.424
relative viability (NCI-H3122; first compound 0.08 µM): 0.859
relative viability (NCI-H3122; first compound 0.8 µM): 0.714
relative viability (NCI-H3122; first compound 2.53 µM): 0.528
relative viability (NCI-H520; first compound 0.08 µM): 0.219
relative viability (NCI-H520; first compound 0.253 µM): 0.186
relative viability (NCI-H520; first compound 0.8 µM): 0.245
relative viability (NCI-H520; first compound 2.53 µM): 0.299
relative viability (NCI-H647; first compound 0.08 µM): 0.229
relative viability (NCI-H647; first compound 0.253 µM): 0.197
relative viability (NCI-H647; first compound 0.8 µM): 0.179
relative viability (NCI-H647; first compound 2.53 µM): 0.223
relative viability (NCI-H661; first compound 0.08 µM): 1.04
relative viability (NCI-H661; first compound 0.253 µM): 0.778
relative viability (NCI-H661; first compound 0.8 µM): 0.845
relative viability (NCI-H661; first compound 2.53 µM): 0.794
relative viability (NCI-H838; first compound 0.08 µM): 0.276
relative viability (NCI-H838; first compound 0.253 µM): 0.307
relative viability (NCI-H838; first compound 0.8 µM): 0.306
relative viability (NCI-H838; first compound 2.53 µM): 0.363
relative viability (PC-14; first compound 0.08 µM): 0.325
relative viability (PC-14; first compound 0.253 µM): 0.226
relative viability (PC-14; first compound 2.53 µM): 0.172
relative viability (PC-3 [JPC-3]; first compound 0.08 µM): 0.926
relative viability (PC-3 [JPC-3]; first compound 0.253 µM): 0.88
relative viability (PC-3 [JPC-3]; first compound 0.8 µM): 0.929
relative viability (PC-3 [JPC-3]; first compound 2.53 µM): 1
relative viability (SK-LU-1; first compound 0.08 µM): 0.185
relative viability (SK-LU-1; first compound 0.253 µM): 0.185
relative viability (SK-LU-1; first compound 0.8 µM): 0.18
relative viability (SK-LU-1; first compound 2.53 µM): 0.226

— the supplement of paper PMC10307832
